Laboratory results published in paper PMC11992225, “Antibacterial compounds against non-growing and intracellular bacteria” (npj Antimicrobials and Resistance, 2025).
Read-outs that look alike come from different tables or passages of the source.

System: non-growing S. aureus DSM2569
Assay: Dilution-regrowth assay (OD600, start-growth-time) on stationary-phase S. aureus
Type: cell-based, Staphylococcus aureus
Conditions: S. aureus; for Regrowth: OD600 after dilution into drug-free medium (mean): OD600 at 6h or 8h; for EC50: regrowth delay of non-growing bacteria, 1:4 CA-MHB pH 7.4, 24 h treatment, OD600 8 h after dilution, read-out: EC50; for Regrowth, OD600 at 6h or 8h after dilution into drug-free medium: average
Experimental: The cultures were grown and treated for 24 h in 1:4 CA-MHB (pH 7.4).
This approach allowed us to capture the time when cultures reached a threshold optical density (start-growth-time, SGT[15]).
The cultures were incubated for 24 h in non-baffled Erlenmeyer flasks at 37 °C with shaking at 200 rpm.
For P. aeruginosa and S. aureus, dose–response analysis was conducted in 96-well plates with a 200 μl assay volume, following the procedure used for screening assay validation experiments. […] Stock solutions were prepared and stored according to the manufacturers’ instructions, then diluted in 10% DMSO before use. Cultures were incubated for 24 h in 1:4 diluted CA-MHB medium under the same conditions used for UPEC cultivation. In preliminary experiments, each compound was tested at a concentration of 20 μM in the dilution-regrowth assay with 4 technical replicates. Regrowth was monitored using a microplate reader at 37 °C with continuous shaking, and OD600 was recorded every 20 min. The time at which OD600 exceeded the threshold of 0.12 was recorded as the Start_Growth-Time.
Statistical significance of the drug effects was assessed using a one-way ANOVA followed by Dunnett’s test, comparing each treatment to the drug-free control. Statistical significance of the differences in chemical characteristics between the hit compounds and the Prestwick library was assessed using a Mann–Whitney test. Statistical significance was set at P ≤ 0.05. A five-parameter logistic equation was used for asymmetric sigmoidal curve fitting and for EC50 and IC50 determination. The Venn diagram in Fig. 1F was prepared using BioVenn web application. Characteristics of the chemical and physical properties of Prestwick library compounds were obtained from Supplementary Table S1 from reference. Characteristics of the hit compounds not included in the Prestwick library were retrieved from the PubChem database.

## CO[C@H]1/C=C/O[C@@]2(C)Oc3c(C)c(O)c4c(O)c(c(/C=N/N=C/N5CCCCC5)c(O)c4c3C2=O)NC(=O)/C(C)=C\C=C\[C@H](C)[C@H](O)[C@@H](C)[C@@H](O)[C@@H](C)[C@H](OC(C)=O)[C@@H]1C [FCE-22250]
Concentration 0.1
  Regrowth: OD600 after dilution into drug-free medium (mean): 0.461
Concentration 0.5
  Regrowth: OD600 after dilution into drug-free medium (mean): 0.312
Concentration 2.5
  Regrowth: OD600 after dilution into drug-free medium (mean): 0.178
Concentration 10
  Regrowth: OD600 after dilution into drug-free medium (mean): 0.092
  EC50: 0.278 µM

## CCCCCCCCN=c1ccn(CCCCCCCCCCn2ccc(=NCCCCCCCC)cc2)cc1 [Octenidine]
Concentration 0.1
  Regrowth, OD600 at 6h or 8h after dilution into drug-free medium: 0.879
Concentration 0.5
  Regrowth, OD600 at 6h or 8h after dilution into drug-free medium: 0.554
Concentration 2.5
  Regrowth, OD600 at 6h or 8h after dilution into drug-free medium: 0.478
Drug concentration 10
  Regrowth, OD600 at 6h or 8h after dilution into drug-free medium (average): 0.086
Staphylococcus aureus, DSM2569
  EC50: 3.3 µM

## O=C(O)c1cn(-c2ccc(F)cc2)c2cc(N3CCNCC3)c(F)cc2c1=O [Sarafloxacin]
Staphylococcus aureus, DSM2569
  EC50: 0.662 µM

## COc1c(N2C[C@@H]3CCCN[C@@H]3C2)c(F)cc2c(=O)c(C(=O)O)cn(C3CC3)c12 [Moxifloxacin]
Concentration 0.1
  Regrowth, OD600 at 6h or 8h after dilution into drug-free medium: 0.607
Concentration 0.5
  Regrowth, OD600 at 6h or 8h after dilution into drug-free medium: 0.484
Concentration 2.5
  Regrowth, OD600 at 6h or 8h after dilution into drug-free medium: 0.330
Concentration 10
  Regrowth, OD600 at 6h or 8h after dilution into drug-free medium: 0.150
Staphylococcus aureus, DSM2569
  EC50: 4.82 µM

## CO[C@H]1/C=C/O[C@@]2(C)Oc3c(C)c(O)c4c(c3C2=O)C2=NC3(CCN(CC(C)C)CC3)NC2=C(NC(=O)/C(C)=C\C=C\[C@H](C)[C@H](O)[C@@H](C)[C@@H](O)[C@@H](C)[C@H](OC(C)=O)[C@@H]1C)C4=O [Rifabutin]
Concentration 0.1
  Regrowth: OD600 after dilution into drug-free medium (mean): 0.129
Concentration 0.5
  Regrowth: OD600 after dilution into drug-free medium (mean): 0.135
Concentration 2.5
  Regrowth: OD600 after dilution into drug-free medium (mean): 0.130
Concentration 10
  Regrowth: OD600 after dilution into drug-free medium (mean): 0.096
Staphylococcus aureus, DSM2569
  EC50: 0.032 µM

## N[C@@H]1CCCCN(c2c(F)cc3c(=O)c(C(=O)O)cn(C4CC4)c3c2Cl)C1 [Besifloxacin]
Concentration 0.1
  Regrowth, OD600 at 6h or 8h after dilution into drug-free medium: 0.576
Concentration 0.5
  Regrowth, OD600 at 6h or 8h after dilution into drug-free medium: 0.336
Concentration 2.5
  Regrowth, OD600 at 6h or 8h after dilution into drug-free medium: 0.134
Concentration 10
  Regrowth, OD600 at 6h or 8h after dilution into drug-free medium: 0.097
Staphylococcus aureus, DSM2569
  EC50: 0.401 µM

## N[C@@H]1CN(c2c(F)cc3c(=O)c(C(=O)O)cn([C@@H]4C[C@@H]4F)c3c2Cl)CC12CC2 [Sitafloxacin]
  EC50: 0.106 µM

## NC1CCN(c2nc3c(cc2F)c(=O)c(C(=O)O)cn3-c2ccc(F)cc2F)C1 (stereo not drawn) [Tosufloxacin]
Staphylococcus aureus, DSM2569
  EC50: 0.328 µM

## NC1CCN(c2c(F)cc3c(=O)c(C(=O)O)cn(C4CC4)c3c2Cl)C1 (stereo not drawn) [Clinafloxacin]
Drug conc 0.1
  OD600 at 6h or 8h after dilution into drug-free medium (regrowth): 0.489
Drug conc 0.5
  OD600 at 6h or 8h after dilution into drug-free medium (regrowth): 0.280
Drug conc 2.5
  OD600 at 6h or 8h after dilution into drug-free medium (regrowth): 0.154
Drug conc 10
  OD600 at 6h or 8h after dilution into drug-free medium (regrowth): 0.126
Staphylococcus aureus, DSM2569
  EC50: 0.205 µM

## CO[C@H]1/C=C/O[C@@]2(C)Oc3c(C)c(O)c4c(O)c(c(/C=N/N5CCN(C6CCCC6)CC5)c(O)c4c3C2=O)NC(=O)/C(C)=C\C=C\[C@H](C)[C@H](O)[C@@H](C)[C@@H](O)[C@@H](C)[C@H](OC(C)=O)[C@@H]1C [Rifapentine]
Concentration 0.1
  Regrowth: OD600 after dilution into drug-free medium (mean): 0.215
Concentration 0.5
  Regrowth: OD600 after dilution into drug-free medium (mean): 0.149
Concentration 2.5
  Regrowth: OD600 after dilution into drug-free medium (mean): 0.116
Concentration 10
  Regrowth: OD600 after dilution into drug-free medium (mean): 0.091
Staphylococcus aureus, DSM2569
  EC50: 0.041 µM

## N#Cc1c(N2C[C@@H]3NCCO[C@H]3C2)c(F)cc2c(=O)c(C(=O)O)cn(C3CC3)c12 [Finafloxacin]
  EC50: 4.66 µM
